“Also recorded” adds a separate entry of the source.
Key:
[1] = system: B16F10 cellular tyrosinase; test: Cellular tyrosinase activity assay in B16F10 cells; type: cell-based, murine; conditions: 1, 2, 5 μM; kojic acid 5 μM; α-MSH 1 μM + IBMX 200 μM, 72 h
Description: To investigate the origins of the anti-melanogenic effects of compounds 3, 8, and 13, their impacts on B16F10 cellular tyrosinase inhibition were evaluated. The experiment utilized a similar experimental method and the same concentrations as those used in the melanin content experiment. Compounds 3, 8, and 13 (1, 2, and 5 μM), kojic acid (5 μM: positive control), and stimulators (1 μM α-MSH and 200 μM IBMX) were used in this experiment. Prior to treatment with the stimulators for 72 h, the test samples (3, 8, 13, and kojic acid) were pre-treated for 1 h.
3.9. Cellular Tyrosinase Activity Assay in B16F10 Cells
The effects of compounds 3, 8, and 13 on B16F10 cellular tyrosinase activity were assessed using a previously reported method. B16F10 cells were seeded, treated with the samples and stimulators, and cultured for 72 h in the same manner as for the cellular melanin content assay. To lyse the cultured cells, a lysis buffer was prepared containing 1 mM phenylmethylsulfonyl fluoride, 50 mM phosphate buffer, and 1% Triton X-100 (5:90:5, v/v/v). The cultivated cells were lysed by adding the prepared lysis buffer (100 µL) after washing twice with PBS. The lysed cells were centrifuged for 30 min at 4 °C and 10,000 g after freezing for 1 h at −80 °C. The supernatants (80 µL) and 10 mM L-dopa (20 µL) were added to each well of a 96-well plate and cultivated for 10 min at 37 °C. The optical density was measured at 475 nm using an ELISA reader. Normalization was performed using a Pierce BCA Protein Assay Kit.

zebrafish larvae [2] = test: Melanin content in zebrafish larvae; type: in vivo, zebrafish (Danio rerio); conditions: compound 8 0.025 mM; kojic acid 20 mM; treated 28 hpf, read 74 hpf
Description: (§1) . Zebrafish embryos obtained by natural mating were dechorionated at 24 hpf and treated with compound 8 (0.025 mM) or kojic acid (20 mM) at 28 hpf. After 46 h, the melanin content and tyrosinase activity were determined.
(§2) 3.13. Measurement of Melanin Content and Tyrosinase Activity in Zebrafish Larvae
(§3) The effects of the 2-phenylbenzo[d]oxazole compound 8 on the melanin content and tyrosinase activity in the zebrafish larvae were assessed using a previously defined procedure with minor modifications. To quantify the melanin content in the zebrafish larvae, zebrafish embryos were obtained through natural mating and operated in a similar manner to the in vivo depigmentation experiment (25 zebrafish embryos per well in a 24-well plate; dechorionation at 24 hpf; test sample treatment (8 [0.025 mM] and kojic acid [20 mM; positive control]) at 28 hpf). Melanin quantification and tyrosinase activity were quantified at 74 hpf. For melanin quantification, the zebrafish larvae were lysed in RIPA buffer (Biosesang, Gyeonggi-do, Korea) and homogenized using a sonicator. […] The absorbance was measured at 405 nm using a microplate reader. For the tyrosinase activity measurement, the supernatants were transferred to new Eppendorf tubes and the protein was quantified using a Pierce BCA protein assay kit, with the absorbance being measured at 570 nm using a microplate reader. […]

[3] = system: tyrosinase activity in zebrafish larvae; test: Tyrosinase activity in zebrafish larvae; type: in vivo, zebrafish (Danio rerio); conditions: compound 8 0.025 mM; kojic acid 20 mM; treated 28 hpf, read 74 hpf
Description: as §1, §2, §3

zebrafish larvae [4] = test: In vivo depigmentation experiment using zebrafish embryos
Description: Zebrafish embryos were used in this study. […] The zebrafish embryos were obtained through natural mating in our laboratory. The chorion of the zebrafish embryos was removed 24 h post-fertilization (hpf).
In Vivo Depigmentation Experiment Using Zebrafish Embryos
A depigmentation experiment was performed using zebrafish embryos, as previously described [38, 49, 50]. Wild-type zebrafish (Danio rerio) were maintained in a fish tank at 28 °C and fed with dried brine shrimp (Artemia salina, San Francisco Bay Brand, San Francisco, CA, USA) three times daily. The zebrafish embryos were obtained through natural mating in mating cages. The obtained zebrafish embryos were transferred to a 90 mm culture dish containing 200 μL of E3-methylene blue (MB) solution, consisting of 0.001% MB, 0.17 mM KCl, 0.33 mM CaCl2, 0.33 mM MgSO4, and 5 mM NaCl, and incubated in an incubator set at 28 °C. At 24 h post-fertilization (hpf), the zebrafish embryos were dechorionated using pronase (Sigma-Aldrich, St. Louis, MO, USA). […] The 48-well plates were incubated in an incubator set at 28 °C for 48 h. At 76 hpf, the zebrafish larvae were mounted on a 1% methylcellulose block after anesthesia with tricaine methanesulfonate (Thermo Fisher Scientific, Waltham, MA, USA), and photographs of the zebrafish larvae were obtained using a SMZ745T stereoscopic microscope (Nikon, Tokyo, Japan). The pigmented areas of the zebrafish larvae were determined using the CS analyzer 3.0 image analysis software (ATTO, Tokyo, Japan).

[5] = kojic acid 20 mM, compound 8 0.025 mM, compound 13 0.025 and 0.05 mM, 76 hpf

SMILES | B16F10 cellular tyrosinase activity [1] | melanin content of zebrafish larvae, vs untreated control (100%) (zebrafish larvae [2]) [%] | % tyrosinase activity in zebrafish larvae, vs untreated control (100%) [3] [%] | toxicity in zebrafish embryos (zebrafish larvae [4]; 0.05 mM) | depigmentation effect on zebrafish larvae (photographs) (zebrafish larvae [4]; [5]) | pigmentation area of zebrafish larvae (CS analyzer) (zebrafish larvae [4]; [5])
Cc1ccc2nc(-c3ccc(O)cc3O)oc2c1 [Compound 3, 4-(6-Methylbenzo[d]oxazol-2-yl)benzene-1,3-diol] | reduced the stimulator-induced tyrosinase activity in a concentration-dependent manner | – | – | – | – | –
Oc1ccc(-c2nc3ccc(Cl)cc3o2)c(O)c1 [Compound 8, 4-(6-Chlorobenzo[d]oxazol-2-yl)benzene-1,3-diol] | reduced the stimulator-induced tyrosinase activity in a concentration-dependent manner | 35 | 29 | weak toxicity | substantially higher depigmentation effects on zebrafish larvae than kojic acid; also recorded: strong potency at 0.025 mM, similar to 13 at 0.05 mM | smallest pigmentation area
Cc1ccc2oc(-c3ccc(O)cc3O)nc2c1 [Compound 13, 4-(5-Methylbenzo[d]oxazol-2-yl)benzene-1,3-diol] | reduced the stimulator-induced tyrosinase activity in a concentration-dependent manner | – | – | – | substantially higher depigmentation effects on zebrafish larvae than kojic acid; also recorded: significantly stronger depigmentation efficacy than kojic acid | –

Source: PMC11396935, “Exploration of Compounds with 2-Phenylbenzo[d]oxazole Scaffold as Potential Skin-Lightening Agents through Inhibition of Melanin Biosynthesis and Tyrosinase Activity” (Molecules, 2024)
